Test results reported in ChEMBL document CHEMBL1821662 (Bioorg Med Chem Lett, 2011).

What was measured:
Aurora kinase B [1] = biological target: T1, Aurora kinase B (Homo sapiens, UniProt Q96GD4); assay: Binding affinity to Aurora B kinase catalytic domain by competitive binding assay
Aurora kinase A = biological target: T2, Aurora kinase A (Homo sapiens, UniProt O14965); assay: Binding affinity to Aurora A kinase catalytic domain by competitive binding assay
T2 sequence (O14965 whole entry): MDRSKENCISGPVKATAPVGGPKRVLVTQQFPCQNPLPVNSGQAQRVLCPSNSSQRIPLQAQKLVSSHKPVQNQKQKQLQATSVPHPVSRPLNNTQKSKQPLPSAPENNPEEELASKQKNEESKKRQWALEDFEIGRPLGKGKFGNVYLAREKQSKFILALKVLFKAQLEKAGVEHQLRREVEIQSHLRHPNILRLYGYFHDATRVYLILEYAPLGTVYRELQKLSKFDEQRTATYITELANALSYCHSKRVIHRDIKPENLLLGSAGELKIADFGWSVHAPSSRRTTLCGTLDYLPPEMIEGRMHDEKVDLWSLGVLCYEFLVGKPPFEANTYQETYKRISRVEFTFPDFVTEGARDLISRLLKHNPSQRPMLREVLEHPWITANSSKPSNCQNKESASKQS

HCT-116 [2] = assay: Antiproliferative activity against human HCT116 cells; type: functional, cell-based
Aurora kinase B [3] = biological target: T1, Aurora kinase B; assay: Inhibition of Aurora B kinase assessed as reduction in histone H3 phosphorylation in human HCT116 cells; type: cell-based, HCT-116
Aurora kinase C = biological target: T3, Aurora kinase C (Homo sapiens, UniProt Q9UQB9); assay: Binding affinity to Aurora C kinase catalytic domain by competitive binding assay
T3 sequence (Q9UQB9 whole entry): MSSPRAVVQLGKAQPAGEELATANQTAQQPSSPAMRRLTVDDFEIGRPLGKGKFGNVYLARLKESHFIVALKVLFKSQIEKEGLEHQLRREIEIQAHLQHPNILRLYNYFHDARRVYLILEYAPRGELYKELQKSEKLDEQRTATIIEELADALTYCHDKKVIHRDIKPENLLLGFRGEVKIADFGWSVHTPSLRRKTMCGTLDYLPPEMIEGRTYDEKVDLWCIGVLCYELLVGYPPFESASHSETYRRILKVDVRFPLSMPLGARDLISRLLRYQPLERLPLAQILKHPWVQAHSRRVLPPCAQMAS

[4] = Half life in Sprague-Dawley rat at 1 mg/kg, iv; type: ADME, organism-based; design: dose 1 mg/kg, route intravenous; details: in vivo
[5] = AUC in Sprague-Dawley rat at 1 mg/kg, iv; type: ADME, organism-based; design: dose 1 mg/kg, route intravenous; details: plasma
[6] = Volume of distribution in Sprague-Dawley rat at 1 mg/kg, iv; type: ADME, organism-based; design: dose 1 mg/kg, route intravenous; details: in vivo
[7] = Clearance in Sprague-Dawley rat at 1 mg/kg, iv; type: ADME, organism-based; design: dose 1 mg/kg, route intravenous; details: in vivo
[8] = AUC in SCID mouse at 60 mg/kg, ip; type: ADME, organism-based; design: dose 60 mg/kg, route intraperitoneal; details: plasma
Mus musculus = assay: Toxicity in nude mouse xenografted with human HCT116 cells assessed as body weight loss at 37.5 mg/kg, ip BID for 8 days; type: organism-based, HCT-116; design: dose 37.5 mg/kg, route intraperitoneal; details: in vivo, 192 h
HCT-116 [9] = assay: Antitumor activity against human HCT116 cells xenografted in nude mouse assessed as tumor suppression dose administered intraperitoneally twice daily; type: functional, cell-based

T1 sequence (Q96GD4 whole entry, the tested form may be a part): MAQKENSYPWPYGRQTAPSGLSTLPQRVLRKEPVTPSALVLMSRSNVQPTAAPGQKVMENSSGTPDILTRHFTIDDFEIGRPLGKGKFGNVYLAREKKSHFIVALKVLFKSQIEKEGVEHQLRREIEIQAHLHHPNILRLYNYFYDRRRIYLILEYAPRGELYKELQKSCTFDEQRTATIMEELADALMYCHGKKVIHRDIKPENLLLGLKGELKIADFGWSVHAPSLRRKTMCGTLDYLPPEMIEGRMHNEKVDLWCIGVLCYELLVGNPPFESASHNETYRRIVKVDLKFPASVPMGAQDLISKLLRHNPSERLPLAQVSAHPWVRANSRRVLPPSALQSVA

| SMILES | Kd (Aurora kinase B [1]) | Kd (Aurora kinase A) | IC50 (HCT-116 [2]) | IC50 (Aurora kinase B [3]) | Kd (Aurora kinase C) | half-life [4] | AUC [5] | Vd [6] | clearance [7] | AUC [8] | Activity (Mus musculus) | Activity (HCT-116 [9]) |
| --- | --- | --- | --- | --- | --- | --- | --- | --- | --- | --- | --- | --- |
| Cc1cc(Nc2nc(Sc3ccc(NC(=O)CN4C[C@H](Oc5cccc(F)c5)[C@@H](O)C4)cc3)nn3cccc23)n[nH]1 | 10 nM | 17 nM | 7 nM | 51 nM |  |  |  |  |  |  |  |  |
| Cc1cc(Nc2nc(Sc3ccc(NC(=O)CN4C[C@H](Oc5ccc(F)cc5F)[C@@H](O)C4)cc3)nn3cccc23)n[nH]1 | 17 nM | 13 nM | 5 nM | 58 nM |  |  |  |  |  |  |  |  |
| Cc1cc(Nc2nc(Sc3ccc(NC(=O)C4CC4)cc3)nn3cc(NC(=O)CCN4CCCCC4)cc23)n[nH]1 | 37 nM | 38 nM | 101 nM | 850 nM | 10 nM |  |  |  |  |  |  |  |
| Cc1cc(Nc2nc(Sc3ccc(NC(=O)CN4C[C@H](OC(C)(C)C)[C@@H](O)C4)cc3)nn3cccc23)n[nH]1 | 5 nM | 12 nM | 4 nM | 16 nM |  | 11.2 h | 0.644 µM·h | 18.3 L/kg | 45 mL/min/kg |  |  |  |
| Cc1cc(Nc2nc(Sc3ccc(NC(=O)CN4C[C@H](O)C[C@H]4CO)cc3)nn3cccc23)n[nH]1 | 15 nM | 58 nM | 596 nM | 637 nM |  |  |  |  |  |  |  |  |
| Cc1cc(Nc2nc(Sc3ccc(NC(=O)CN4C[C@H](OC(C)(C)C)C[C@H]4CO)cc3)nn3cccc23)n[nH]1 | 8 nM | 9 nM | 8 nM | 15 nM | 2 nM | 15.4 h | 0.581 µM·h | 9.77 L/kg | 52.2 mL/min/kg |  |  |  |
| Cc1cc(Nc2nc(Sc3ccc(NC(=O)C4CC4)cc3)nn3cccc23)n[nH]1 | 20 nM | 12 nM | 345 nM | 431 nM | 4 nM | 10.8 h | 2.34 µM·h | 2.15 L/kg | 28.5 mL/min/kg |  |  |  |
| Cc1cc(Nc2nc(Sc3ccc(NC(=O)CN4C[C@H](OC5CCCC5)[C@@H](O)C4)cc3)nn3cccc23)n[nH]1 | 4 nM | 11 nM | 6 nM | 23 nM |  |  |  |  |  |  |  |  |
| Cc1cc(Nc2nc(Sc3ccc(NC(=O)CN4C[C@H](OC(C)C)[C@@H](O)C4)cc3)nn3cccc23)n[nH]1 | 4 nM | 8 nM | 10 nM | 23 nM |  |  |  |  |  |  |  |  |
| Cc1cc(Nc2nc(Sc3ccc(NC(=O)C4CC4)cc3)nn3cc(NC(=O)CN4CCCC4)cc23)n[nH]1 | 49 nM | 23 nM | 536 nM | 828 nM | 13 nM |  |  |  |  |  |  |  |
| Cc1cc(Nc2cc(N3CCN(C)CC3)nc(Sc3ccc(NC(=O)C4CC4)cc3)n2)n[nH]1 [TOZASERTIB] |  |  | 28 nM |  |  |  |  |  |  |  |  |  |
| Cc1cc(Nc2nc(Sc3ccc(NC(=O)CN4CC(F)(F)C[C@H]4CO)cc3)nn3cccc23)n[nH]1 | 5 nM | 8 nM | 25 nM | 29 nM | 2 nM |  |  |  |  |  |  |  |
| Cc1cc(Nc2nc(Sc3ccc(NC(=O)CN4CCOCC4)cc3)nn3cccc23)n[nH]1 | 41 nM | 85 nM | 1840 nM | 1830 nM | 17 nM |  |  |  |  |  |  |  |
| Cc1cc(Nc2nc(Sc3ccc(NC(=O)CN4C[C@H](OC(C)(C)C)C[C@@H]4CO)cc3)nn3cccc23)n[nH]1 | 69 nM | 301 nM | 2390 nM | 2490 nM |  |  |  |  |  |  |  |  |
| Cc1cc(Nc2nc(Sc3ccc(NC(=O)CN4C[C@H](Oc5ccc(F)cc5)C[C@H]4CO)cc3)nn3cccc23)n[nH]1 | 21 nM | 53 nM | 24 nM | 78 nM |  |  |  |  |  |  |  |  |
| Cc1cc(Nc2nc(Sc3ccc(NC(=O)CNC4CCCC4)cc3)nn3cccc23)n[nH]1 | 42 nM | 143 nM | 365 nM | 655 nM | 14 nM |  |  |  |  |  |  |  |
| Cc1cc(Nc2nc(Sc3ccc(NC(=O)CN4CCC[C@H]4CO)cc3)nn3cccc23)n[nH]1 | 4 nM | 14 nM | 148 nM | 146 nM | 1 nM |  |  |  |  |  |  |  |
| Cc1cc(Nc2nc(Sc3ccc(NC(=O)CNC4CC4)cc3)nn3cccc23)n[nH]1 | 41 nM | 32 nM | 364 nM | 288 nM | 6 nM |  |  |  |  |  |  |  |
| Cc1cc(Nc2nc(Sc3ccc(NC(=O)CN4C[C@H](F)C[C@H]4CO)cc3)nn3cccc23)n[nH]1 | 9 nM | 15 nM | 104 nM | 91 nM |  |  |  |  |  |  |  |  |

| SMILES | Kd (Aurora kinase B [1]) | Kd (Aurora kinase A) | IC50 (HCT-116 [2]) | IC50 (Aurora kinase B [3]) | Kd (Aurora kinase C) | half-life [4] | AUC [5] | Vd [6] | clearance [7] | AUC [8] | Activity (Mus musculus) | Activity (HCT-116 [9]) |
| --- | --- | --- | --- | --- | --- | --- | --- | --- | --- | --- | --- | --- |
| Cc1cc(Nc2nc(Sc3ccc(NC(=O)CN4C[C@H](OC(C)(C)C(F)(F)F)[C@@H](O)C4)cc3)nn3cccc23)n[nH]1 | 4 nM | 6 nM | 9 nM | 27 nM |  |  |  |  |  |  |  |  |
| CCC(C)(C)O[C@H]1CN(CC(=O)Nc2ccc(Sc3nc(Nc4cc(C)[nH]n4)c4cccn4n3)cc2)C[C@@H]1O | 4 nM | 8 nM | 9 nM | 28 nM |  |  |  |  |  |  |  |  |
| Cc1cc(Nc2nc(Sc3ccc(NC(=O)CN4C[C@H](N)C[C@H]4CO)cc3)nn3cccc23)n[nH]1 | 144 nM | 381 nM | 4700 nM | 15000 nM |  |  |  |  |  |  |  |  |
| Cc1cc(Nc2nc(Sc3ccc(NC(=O)C4CC4)cc3)nn3cc(NC(=O)CN4CCC[C@@H]4CO)cc23)n[nH]1 | 16 nM | 10 nM | 536 nM | 6300 nM | 80 nM |  |  |  |  |  |  |  |
| Cc1cc(Nc2nc(Sc3ccc(NC(=O)CN4C[C@H]5C[C@H]5[C@H]4CO)cc3)nn3cccc23)n[nH]1 | 15 nM | 17 nM | 203 nM | 179 nM |  |  |  |  |  |  |  |  |
| Cc1cc(Nc2nc(Sc3ccc(NC(=O)CN(C)C)cc3)nn3cccc23)n[nH]1 | 8 nM | 31 nM | 370 nM | 293 nM | 5 nM |  |  |  |  |  |  |  |
| Cc1cc(Nc2nc(Sc3ccc(NC(=O)CN4C[C@@H](O)[C@@H](Oc5ccc(F)cc5)C4)cc3)nn3cccc23)n[nH]1 | 8 nM | 7 nM | 9 nM | 84 nM |  |  |  |  |  |  |  |  |
| Cc1cc(Nc2nc(Sc3ccc(NC(=O)CN4C[C@H](SC(C)(C)C)C[C@H]4CO)cc3)nn3cccc23)n[nH]1 | 39 nM | 111 nM | 1610 nM | 1790 nM |  |  |  |  |  |  |  |  |
| Cc1cc(Nc2nc(Sc3ccc(NC(=O)CN4CC(=NO)[C@@H](OC(C)(C)C)C4)cc3)nn3cccc23)n[nH]1 (mixture of isomers) | 5 nM | 9 nM | 8 nM | 28 nM |  |  |  |  |  |  |  |  |
| Cc1cc(Nc2nc(Sc3ccc(NC(=O)CN4C[C@H](Oc5ccc(F)cc5)[C@@H](O)C4)cc3)nn3cccc23)n[nH]1 | 8 nM | 15 nM | 5 nM | 44 nM |  | 3.36 h | 1.17 µM·h | 2.93 L/kg | 25.2 mL/min/kg | 47.5 µM·h | > 20% | Dose-dependent effect |
| Cc1cc(Nc2nc(Sc3ccc(NC(=O)C4CC4)cc3)nn3cc(NC(=O)N4CCN(C)CC4)cc23)n[nH]1 | 4 nM | 7 nM | 75 nM | 190 nM | 5 nM | 8.66 h | 0.757 µM·h | 5.86 L/kg | 53.3 mL/min/kg |  |  |  |
| COCCO[C@H]1CN(CC(=O)Nc2ccc(Sc3nc(Nc4cc(C)[nH]n4)c4cccn4n3)cc2)C[C@@H]1O | 2 nM |  | 25 nM | 49 nM |  |  |  |  |  |  |  |  |
| Cc1cc(Nc2nc(Sc3ccc(NC(=O)CN4C[C@H](O)[C@@H](F)C4)cc3)nn3cccc23)n[nH]1 | 1 nM | 5 nM | 33 nM | 47 nM |  |  |  |  |  |  |  |  |
| Cc1cc(Nc2nc(Sc3ccc(NC(=O)CN4C[C@H](Oc5ccccc5F)[C@@H](O)C4)cc3)nn3cccc23)n[nH]1 | 9 nM | 10 nM | 4 nM | 28 nM |  |  |  |  |  |  |  |  |
| Cc1cc(Nc2nc(Sc3ccc(NC(=O)CN4C[C@H](Oc5cc(F)cc(F)c5)[C@@H](O)C4)cc3)nn3cccc23)n[nH]1 | 21 nM | 26 nM | 7 nM | 51 nM |  |  |  |  |  |  |  |  |
| Cc1cc(Nc2nc(Sc3ccc(NC(=O)CN4C[C@H](OCC5CC5)[C@@H](O)C4)cc3)nn3cccc23)n[nH]1 | 2 nM | 7 nM | 10 nM | 23 nM |  |  |  |  |  |  |  |  |
| Cc1cc(Nc2nc(Sc3ccc(NC(=O)CN4C[C@@H](F)C[C@H]4CO)cc3)nn3cccc23)n[nH]1 | 4 nM | 8 nM | 25 nM | 28 nM |  |  |  |  |  |  |  |  |
| Cc1cc(Nc2nc(Sc3ccc(NC(=O)C4CC4)cc3)nn3cc(NC(=O)CN4CCOCC4)cc23)n[nH]1 | 9 nM | 7 nM | 160 nM | 420 nM | 3 nM |  |  |  |  |  |  |  |
